Measurements: patent US10947253B2, “Fused polycyclic dimers” (Ankh Life Sciences Limited, priority 2019, dated 2021)
Where two headings read alike, the source gives them in different places.

How the values were obtained:
HCC70 = assay: MTT growth inhibition (in vitro cytotoxicity), HCC70; assay type: cell-based; conditions: Homo sapiens, average IC50
Method: (§1) The following Table sets forth the IC50 values of harmaline and quinoline analogs against 23 human cancer cell lines. Growth inhibition effects (in vitro cytotoxicity) on pancreatic, endometrial, breast, lung, ovarian, renal, cervical, lymphoma, and myeloma cancer cells were determined by MTT assays and represented by average IC50 values. In the Table, the results are given in terms of μM, and nd=not determined.

MDA-MB-231 = assay: MTT growth inhibition (in vitro cytotoxicity), MDA-MB-231; assay type: cell-based; conditions: Homo sapiens, average IC50
Method: as §1

JIM1 = assay: MTT growth inhibition (in vitro cytotoxicity), JIM1; assay type: cell-based; conditions: Homo sapiens, average IC50
Method: as §1

FaDu = assay: MTT growth inhibition (in vitro cytotoxicity), FaDu; assay type: cell-based; conditions: Homo sapiens, average IC50
Method: as §1

HEC-1a = assay: MTT growth inhibition (in vitro cytotoxicity), HEC-1a; assay type: cell-based; conditions: Homo sapiens, average IC50
Method: as §1

H1650(EGFR mut) = assay: MTT growth inhibition (in vitro cytotoxicity), H1650(EGFR mut); assay type: cell-based; conditions: Homo sapiens, NCI-H1650, average IC50
Method: as §1

A498 = assay: MTT growth inhibition (in vitro cytotoxicity), A498; assay type: cell-based; conditions: Homo sapiens, average IC50
Method: as §1

SiHA = assay: MTT growth inhibition (in vitro cytotoxicity), SiHA; assay type: cell-based; conditions: Homo sapiens, average IC50
Method: as §1

RPMI-8226 = assay: MTT growth inhibition (in vitro cytotoxicity), RPMI-8226; assay type: cell-based; conditions: Homo sapiens, average IC50
Method: as §1

A2780CP = assay: MTT growth inhibition (in vitro cytotoxicity), A2780CP; assay type: cell-based; conditions: Homo sapiens, A2780C/P, average IC50
Method: as §1

DoHH-2 = assay: MTT growth inhibition (in vitro cytotoxicity), DoHH-2; assay type: cell-based; conditions: Homo sapiens, average IC50
Method: as §1

H1975 (EGFR mut) = assay: MTT growth inhibition (in vitro cytotoxicity), H1975 (EGFR mut); assay type: cell-based; conditions: Homo sapiens, NCI-H1975, average IC50
Method: as §1

BxPC-3 = assay: MTT growth inhibition (in vitro cytotoxicity), BxPC-3; assay type: cell-based; conditions: Homo sapiens, average IC50
Method: as §1

MDA-MB-468 = assay: MTT growth inhibition (in vitro cytotoxicity), MDA-MB-468; assay type: cell-based; conditions: Homo sapiens, average IC50
Method: as §1

MIA Paca-2 = assay: MTT growth inhibition (in vitro cytotoxicity), MIA Paca-2; assay type: cell-based; conditions: Homo sapiens, average IC50
Method: as §1

A2780 = assay: MTT growth inhibition (in vitro cytotoxicity), A2780; assay type: cell-based; conditions: Homo sapiens, average IC50
Method: as §1

L363 = assay: MTT growth inhibition (in vitro cytotoxicity), L363; assay type: cell-based; conditions: Homo sapiens, L-363, average IC50
Method: as §1

ASPC-1 = assay: MTT growth inhibition (in vitro cytotoxicity), ASPC-1; assay type: cell-based; conditions: Homo sapiens, ASPC1, average IC50
Method: as §1

MOLP-8 = assay: MTT growth inhibition (in vitro cytotoxicity), MOLP-8; assay type: cell-based; conditions: Homo sapiens, average IC50
Method: as §1

OCI-LY3 = assay: MTT growth inhibition (in vitro cytotoxicity), OCI-LY3; assay type: cell-based; conditions: Homo sapiens, average IC50
Method: as §1

KMS-34 = assay: MTT growth inhibition (in vitro cytotoxicity), KMS-34; assay type: cell-based; conditions: Homo sapiens, average IC50
Method: as §1

KMM-1 = assay: MTT growth inhibition (in vitro cytotoxicity), KMM-1; assay type: cell-based; conditions: Homo sapiens, average IC50
Method: as §1

AN3CA = assay: MTT growth inhibition (in vitro cytotoxicity), AN3CA; assay type: cell-based; conditions: Homo sapiens, AN3-CA, average IC50
Method: as §1

human cancer cell lines = assay: Cancer cell growth inhibition, summary over cell lines; assay type: cell-based; conditions: read-out: cancer cell growth inhibition (IC50)
Method: as §1

Metabolic half-life = assay type: in vitro ADME; conditions: read-out: metabolic half-lives

| Compound | IC50 (HCC70) [µM] | IC50 (MDA-MB-231) [µM] | IC50 (JIM1) [µM] | IC50 (FaDu) [µM] | IC50 (HEC-1a) [µM] | IC50 (H1650(EGFR mut)) [µM] | IC50 (A498) [µM] | IC50 (SiHA) [µM] | IC50 (RPMI-8226) [µM] | IC50 (A2780CP) [µM] | IC50 (DoHH-2) [µM] | IC50 (H1975 (EGFR mut)) [µM] | IC50 (BxPC-3) [µM] | IC50 (MDA-MB-468) [µM] | IC50 (MIA Paca-2) [µM] | IC50 (A2780) [µM] | IC50 (L363) [µM] | IC50 (ASPC-1) [µM] | IC50 (MOLP-8) [µM] | IC50 (KMM-1) [µM] | other results |
| --- | --- | --- | --- | --- | --- | --- | --- | --- | --- | --- | --- | --- | --- | --- | --- | --- | --- | --- | --- | --- | --- |
| COc1ccc2nc(CC(Cc3ccc4cc(OC)ccc4n3)c3ccccc3)ccc2c1 [Compound 18, 2,2′-(2-phenylpropane-1,3-diyl)bis(6-methoxyquinoline)] | > 100 | > 100 | 31.7 | 30.3 | 37.6 | 48.5 | > 100 | > 100 | 17.8 | 26.6 | 14.3 | > 100 | 25.1 | > 100 | 21.9 | 25.6 | 17.4 | > 100 | 15 | 14.8 | IC50 (OCI-LY3): 42.2 µM; IC50 (KMS-34): 17.2 µM; IC50 (AN3CA): 41.8 µM |
| COc1ccc2c3c([nH]c2c1)C(CC(CC1NCCc2c1[nH]c1cc(OC)ccc21)c1ccc(O)c(OC)c1)NCC3 (centres unmarked) [Compound 10, 4-(1,3-bis(7-methoxy-2,3,4,9-tetrahydro-1H-pyrido[3,4-b]indol-1-yl)propan-2-yl)-2-methoxyphenol] |  |  | 2.27 | 2.61 |  |  |  |  |  |  | 2.24 |  |  |  | 2.53 | 6.14 | 2.17 | 4.62 |  | 2.53 |  |
| COc1ccc2c3c([nH]c2c1)C(CC(CC1NCCc2c1[nH]c1cc(OC)ccc21)c1ccccc1)NCC3 (centres unmarked) [Compound 11, 1,1′-(2-phenylpropane-1,3-diyl)bis(7-methoxy-2,3,4,9-tetrahydro-1H-pyrido[3,4-b]indole)] |  |  | 2.42 | 2.22 |  |  |  |  |  |  | 2.31 |  |  |  | 2.25 | 3.4 | 1.92 | 2.4 |  | 2.05 | IC50 (human cancer cell lines; cell lines not specified): 2 to 4 µM |
| c1ccc(C(Cc2ccc3ccccc3n2)Cc2ccc3ccccc3n2)cc1 [Compound 17, 2,2′-(2-phenylpropane-1,3-diyl)diquinoline] | 17.2 | 14.5 | 11 | 18.6 | 25.4 | 24.6 | 21.9 | 23.5 | 7.92 | 9 | 6.9 | 30.1 | 7.64 | 25.8 | 13.3 | 13.3 | 7.99 | 28.7 | 6.56 | 7.99 | IC50 (OCI-LY3): 23.8 µM; IC50 (KMS-34): 7.85 µM; IC50 (AN3CA): 9.35 µM |
| COc1cc(C=O)ccc1O [vanillin, reference compound] |  |  |  |  |  |  |  |  |  |  |  |  |  |  |  |  |  |  |  |  | IC50 (human cancer cell lines; cell lines not specified): 40 µM |
| COc1ccc2[nH]c3c(c2c1)CCN=C3CCCCC1=NCCc2c1[nH]c1ccc(OC)cc21 [Compound 9, 1,4-bis(6-methoxy-4,9-dihydro-3H-pyrido[3,4-b]indol-1-yl)butane] | 11.9 | 19.4 | 21.1 | 6.82 | 20.7 | 15.1 | 19.2 | 19.7 | 5.54 | 17.8 | 6.48 | 19.1 | 10.7 | 7.09 | 6.58 | 11.6 | 8.34 | 20.2 | 3.68 | 12.2 | IC50 (OCI-LY3): 6.99 µM; IC50 (KMS-34): 15.1 µM; IC50 (AN3CA): 20.7 µM |
| COc1cc(C(Cc2ccc3ccccc3n2)Cc2ccc3ccccc3n2)ccc1O [Compound 16, 4-(1,3-di(quinolin-2-yl)propan-2-yl)-2-methoxyphenol] | 35.2 | 31.6 | 35.4 | 49.2 | 67.7 | 51 | 81.3 | 84.3 | 15.2 | 22.3 | 14.8 | 58.9 | 19.5 | 31.6 | 24.5 | 29.7 | 29.5 | 94.6 | 16 | 17 | IC50 (OCI-LY3): 77.5 µM; IC50 (KMS-34): 14.8 µM; IC50 (AN3CA): 19.7 µM |
| COc1cc(C(Cc2nccc3ccccc23)Cc2nccc3ccccc23)ccc1O [Compound 13, 4-(1,3-di(isoquinolin-1-yl)propan-2-yl)-2-methoxyphenol] | 37.2 | 28.2 | 29.2 | 33.6 | 39.8 | 38.1 | 38.5 | 45.2 | 18 | 25.1 | 19.5 | 42.2 | 20.1 | 19.6 | 19.7 | 27.2 | 29.2 | 49 | 9.71 | 14.8 | IC50 (OCI-LY3): 36.7 µM; IC50 (KMS-34): 11.8 µM; IC50 (AN3CA): 19.5 µM |
| COc1ccc2[nH]c3c(c2c1)CCN=C3CC(C)(C)CC1=NCCc2c1[nH]c1ccc(OC)cc21 [Compound 8, 1,1′-(2,2-dimethylpropane-1,3-diyl)bis(6-methoxy-4,9-dihydro-3H-pyrido[3,4-b]indole)] | 1.3 | 1.5 | 2.59 | 0.98 | 2.22 | 1.78 | 1.71 | 2.89 | 0.81 | 2.23 | 2.21 | 2.08 | 0.95 | 1.9 | 1.22 | 1.38 | 1.21 | 2.07 | 0.67 | 1.49 | IC50 (human cancer cell lines; cell lines not specified): 0.6 to 2 µM; half-life (Metabolic half-life): 6.88 ± 1.94 h; IC50 (OCI-LY3): 2.59 µM; IC50 (KMS-34): 1.7 µM; IC50 (AN3CA): 1.96 µM |
| COc1ccc2c3c([nH]c2c1)C(CC(CC1=NCCc2c1[nH]c1cc(OC)ccc21)c1ccc(O)c(OC)c1)=NCC3 [Compound 5, 4-(1,3-bis(7-methoxy-4,9-dihydro-3H-pyrido[3,4-b]indol-1-yl)propan-2-yl)-2-methoxy-phenol] | 2.38 | 2.52 | 3.17 | 3.87 | 5.05 | 2.78 | 3.56 | 4.88 | 3.19 | 3.76 | 1.83 | 6.12 | 2.11 | 2.76 | 2.87 | 5 | 2.69 | 6.75 | 3.37 | 3.48 | IC50 (human cancer cell lines; cell lines not specified): 4 to 7 µM; half-life (Metabolic half-life): 1.28 ± 0.0393 h; IC50 (OCI-LY3): 4.54 µM; IC50 (KMS-34): 4.72 µM; IC50 (AN3CA): 2.5 µM |
| COc1ccc2c3c([nH]c2c1)C(CC(CC1=NCCc2c1[nH]c1cc(OC)ccc21)c1ccccc1)=NCC3 [Compound 6, 1,1′-(2-phenylpropane-1,3-diyl)bis(7-methoxy-4,9-dihydro-3H-pyrido[3,4-b]indole)] |  |  | 2.22 | 1.58 |  |  |  |  |  |  | 1.98 |  |  |  | 1.85 | 2.95 | 1.4 | 2.08 |  | 1.91 | IC50 (human cancer cell lines; cell lines not specified): 4 to 7 µM |
| COc1ccc2c3c([nH]c2c1)C(C)=NCC3 [harmaline, reference compound] |  |  |  |  |  |  |  |  |  |  |  |  |  |  |  |  |  |  |  |  | IC50 (human cancer cell lines): 25 µM |
| COc1ccc2[nH]c3c(c2c1)CCN=C3CCCC1=NCCc2c1[nH]c1ccc(OC)cc21 [Compound 7, 1,3-bis(6-methoxy-4,9-dihydro-3H-pyrido[3,4-b]indol-1-yl)propane] | 5.13 | 3.12 | 6.15 | 2.34 | 7.02 | 4.95 | 5.39 | 12.7 | 1.97 | 4.12 | 2.41 | 5.77 | 3.21 | 2.6 | 4.54 | 2.54 | 2.47 | 7.9 | 1.88 | 5.18 | IC50 (human cancer cell lines; cell lines not specified): 0.6 to 2 µM; half-life (Metabolic half-life): 2.6 ± 0.124 h; IC50 (OCI-LY3): 8.85 µM; IC50 (KMS-34): 4.41 µM; IC50 (AN3CA): 3.01 µM |
